The results in this text go back to article PMC12323867 (RSC Medicinal Chemistry, 2025).

The test deals with T1, LSD1-HDAC1-CoREST complex (Homo sapiens, UniProt O60341).
T1 construct: full length native LSD1 (UniProt ID: O60341); made in house; host or cells: HEK 293F cells (co-transfection, pcDNA3 vectors)
The test can be described thus: LSD1 HRP-coupled demethylase assay, SP2509/SP2577 analogues. The class given is biochemical. The method, then:
The analogues synthesised were then tested for their ability to inhibit LSD1 using purified LSD1-HDAC1-CoREST complex (Fig. 2B). We used an established fluorescent read out horseradish peroxidase (HRP) assay to monitor LSD1 enzymatic activity in the CoREST complex[8] (see ESI ^† for full details).
2. Supplementary Information: Biology
2.1. LSD-HDAC1-CoREST expression and purification
Lysis Buffer (Buffer A) Wash Buffer (Buffer B)
• 50 mM Tris/Cl pH 7.5 • 50 mM Tris/Cl pH 7.5
• 50 mM Potassium Acetate • 50 mM Potassium Acetate […]
Cleavage Buffer (Buffer C) Gel Filtration Buffer (Buffer D)
• 50 mM Tris/Cl pH 7.5 Filtered at vacuum.
• 50 mM Potassium Acetate • 50 mM Tris/Cl pH 7.5
• 5 % v/v Glycerol • 50 mM Potassium Acetate
• 0.5 mM tris(2- • 0.5 mM TCEP carboxyethyl)phosphine (TCEP)
The CoREST ternary complex was comprised of full length native LSD1 (UniProt ID: O60341), full length HDAC1 (UniProt ID: Q13547) and N-terminally truncated RCOR1 (86-485aa) (UniProt ID:
Q9UKL0). Protein constructs were cloned into pcDNA3 vector. The RCOR1 constructs contained an N-terminal (His)10(Flag)3 tag followed by a Tev protease cleavage site. The constructs for ternary complex were co-transfected into suspension-grow HEK 293F cells (Thermofisher Scientific) with polyethylenimine (PEI) (Sigma) and harvested after 48 hours. This section of the procedure was carried out as described previously in literature.11,12
Cell pellets from 1.2 L culture were defrosted, and buffer A (30 mL) was added. The solution was sonicated (Soniprep 150) in an beaker of ice using a 9 mm probe at 10 ampules; operated with 10 […]
2.2. SP2509/SP2577 analogues LSD1 HRP-coupled demethylase assay protocol The commercial reagents for the assay were HRP and Amplex® Ultrared, which are available to purchase from ThermoFisher (31490) and Invitrogen (10737474), respectively. HRP was made up to 8 mg/mL stock solution in 1xPBS buffer, divided into 10 µL aliquots, snap-frozen in liquid nitrogen and stored at -80 °C. Amplex® Ultrared was made up to 10 mM solution in DMSO, divided into 20 µL aliquots and wrapped in foil, away from light and stored at -20 °C. For each assay experiment, CoREST complex was diluted to 500 nM in assay buffer (20 mM HEPES pH 7.5 and 50 mM NaCl).
HRP was defrosted by diluting each aliquot in 90 µL 1xPBS solution, making a 0.8 mg/mL solution.
Amplex® Ultrared was made up to 200 µM in assay buffer. HRP and Amplex® Ultrared were pre-mixed before addition to the plate. H3K4Me2 substrate (4 mM in deionised water) was diluted to 300 µM in assay buffer. All stocks were stored on ice during assay preparation.
The assay was carried out using a ‘black well’ 96 well plate (Corning no. 3915) in a reaction volume of 100 μL. The final concentrations in the assay were as follows: 50 nM CoREST complex, 10 μM Amplex® UltraRed, 0.04 mg/mL HRP and 15 μM H3K4Me2 peptide substrate. The final DMSO concentration in each well was 1.1 %. Three wells of each experiments were designated ‘background controls’ and contained 85 μL assay buffer, premixed Amplex® UltraRed and HRP (10 µL) and H3K4Me peptide substrate (300 μM, 5 µL).
A stock solution of inhibitor (1 -5 mM in DMSO) was subjected to an inhibitor dilution series, in Eppendorf tubes, in 100 % DMSO. Each new inhibitor stock (4 μL) was diluted in assay buffer (1 in 75) within a new Eppendorf set with assay buffer (20 mM HEPES pH 7.5 and 50 m M NaCl), ensuring the percentage of DMSO was consistent throughout the series. To each well of interest, Inhibitor in assay buffer (75 μL) was added, and CoREST complex (500 nM, 10 µL) was added thereafter. The plate was placed on a rocker and pre -incubated for 30 mins. To each well, premixed Amplex® UltraRed and HRP (10 µL) was added before H3K4Me 2 peptide substrate in assay buffer solution (300 μM, 5 µL) was added to the wall of the plate. The plate was covered in foil and spun down for one minute before being placed in the plate reader. The final percentage concentration of DMSO in […]

“And” between values parts separate entries of the source, which are not always exact repeats. Equal values may be shown once. Read-outs that look alike come from different tables or passages of the source.

Usually IC50 stands for the concentration at which inhibition is half-maximal. On to `C/C(=N\NC(=O)c1cccc(S(=O)(=O)N2CCOCC2)c1)c1cc(Cl)ccc1O` [SP2509, reference compound], for which the IC50 is, setting by setting: (LSD1 enzymatic activity, complex 50 nM, HRP assay, SP2509 value is mean of three sets, read-out: LSD1-HDAC1-CoREST IC50) 54.2 nM; (per parallel set, each set with SP2509 as reference standard, read-out: IC50 from dose response curves (Figure S1)) 52 nM and 56 nM and 55 nM.
